# Measured values reported in patent US20120052041A1, “POLYMERIC NANOPARTICLES WITH ENHANCED DRUG-LOADING AND METHODS OF USE THEREOF” (THE BRIGHAM AND WOMEN'S HOSPITAL, INC., priority 2009, published 2012).
# Like-named read-outs stand apart in the source and are kept apart here.
# Columns and labels:
# MDA-MB-231 [1] = assay: Annexin V/propidium iodide apoptosis FACS, MDA-MB-231; assay type: cell-based, human
# Protocol: (§1) Cells grown in 6-well plates were treated with drugs for 48 h, and incubated with 5 μL AnnexinV-Alexa Fluor 488 in binding buffer (10 mM HEPES, 140 mM NaCl, 2.5 mM CaCl2, pH 7.4) for 15 min in the dark, according to the manufacturer's protocol. Cells were then washed with binding buffer, counterstained with propidium iodide and immediately processed for FITC and propidium iodide staining using a Becton Dickinson FACSCalibur flow cytometer (excitation 488 and 585 nm, respectively). AnnexinV-Alexa Fluor 488, propidium iodide or both were omitted for the negative controls.
# as §1, with “Cancer cells grown” for “Cells grown”, “5 μl” for “5 μL”
# B16-F10 [2] = assay: Annexin V/propidium iodide apoptosis FACS, B16-F10; assay type: cell-based, mouse
# Protocol: as §1
# as §1, with “Cancer cells grown” for “Cells grown”, “5 μl” for “5 μL”
# B16/F10 melanoma = assay: In vivo murine B16/F10 melanoma tumor model; set-up: species or system mouse
# Protocol: Male C57/BL6 mice (20 g) were injected with 5×10^5 BL6/F10 melanoma cells into the flanks. The drug therapy was started after the tumors attained volume of 25 mm3. The animals were intravenously injected with free PD98059 or PD98059-nanoparticles such that the total dose of PD98059 was 5 mg/kg of PD98059 (administered by tail vein injection). A batch of PD98059 (free or as nanoparticle)-treated animals were subsequently injected with cisplatin (2.5 mg/kg), which was administered intraperitoneally after […] following the PD98059 dosing. The total volume of injection was 100 μl. The tumor volumes and body weights were monitored on a daily basis. The animals were sacrificed at predefined time points. The organs (liver, lung, spleen, kidney and tumor) were harvested immediately following sacrifice and divided into equal parts and stored at −80° C. for further analysis.
# To validate the therapeutic efficacy of this treatment, the inventors randomly sorted mice bearing established B16/F10 melanomas into five groups, which received three doses of one of the following treatments (i) vehicle control (ii) free PD98 059 (5 mg/kg) (iii) PD98059-nanoparticle (equivalent to 5 mg/kg of PD98059) (iv) Cisplatin (1.25 mg/kg) and (v) PD98059-nanoparticle (equivalent to 5 mg/kg of PD98059)+Cisplatin (1.25 mg/kg). Cisplatin was administered intraperitoneally one day after the PD98059 administration in order to achieve a sequential biological effect of MAPK-inhibition followed by induction of chemotherapy-induced cytotoxicity. The mice injected with only vehicle formed large tumors by day 14, and consequently, were euthanized. The animals in the other groups were also sacrificed at the same time point to evaluate the effect of the treatments on tumor pathology.
# [3] = system: panel of 18 other serine/threonine kinases; conditions: previous studies [15]; cited from earlier work
# MEK = conditions: previous studies [15]; read-out: IC50 for inhibition of MEK; cited from earlier work
# ERK1/2 [4] = assay: Immunoblotting of phosphorylated vs total ERK1/2, B16-F10; assay type: cell-based, mouse; conditions: 50 μM
# Protocol: (§2) Cells were washed twice with PBS and directly lysed in 3× loading buffer containing 12% sodium dodecyl sulfate, 15% 2-mercaptoethanol, 1 mM sodium orthovandate and protease inhibitor cocktail tablets from Roche Applied Science (Indianapolis, Ind.). Cells were further homogenized by passing the lysates 3 times through an insulin needle. Samples were then heated for 5 min at 100° C. and equal amounts loaded onto tris-glycine SDS-polyacrylamide gels. Proteins were electrophoretically transferred onto polyvinylidene difluoride membranes, blocked for 1 h with 7% non-fat dry milk, and subsequently incubated overnight at 4° C. with primary antibodies directed against the phosphorylated or total forms of ERK1//2 and AKT. Proteins were detected with horseradish peroxidase-conjugated anti-rabbit secondary antibodies and Lumi-LightPLUS Western Blotting Substrate (Roche Applied Science). The blots were developed using GeneSnap and optical densities off the protein bands quantified using GeneTools (both from SynGene, Frederick, Md.). Predetermined molecular weight standards were used as markers. Proteins were normalized against actin.
# (§3) The inventors next evaluated the effect of the treatments on the phosphorylation status of ERK in the two cell lines. […]
# ERK1/2 [5] = assay: Immunoblotting of phosphorylated vs total ERK1/2, MDA-MB-231; assay type: cell-based, human; conditions: 50 μM
# Protocol: as §2, §3
# B16-F10 [6] = assay: MTS cell viability assay, B16-F10; assay type: cell-based; conditions: Mus musculus, 48 hrs, read-out: proportion of viable cells as percentage of vehicle-treated control
# Protocol: (§4) Cancer cells in 96-well plates were incubated with various doses PD or NP for 24, 48 and 72 hrs. The percentage of viable cells was then quantified with 3-(4,5-Dimethylthiazol-2-yl)-5-(3-carboxymethoxyphenyl)-2-(4-sulfophenyl)-2H-tetrazolium (MTS) from the CellTiter 96 AQueous One Solution kit. MTS is reduced by mitochondrial dehydrogenases of live cells, yielding a colored adduct that can be read spectrophotometrically. Briefly, the cells were washed with PBS, incubated with 0.3 mg/ml of MTS, in basal medium without phenol red, for 4 hrs at 37° C. and absorbance was then measured at 490 nm in a plate reader (Versamax, Molecular Devices, Sunnyvale, Calif.). Final absorbance, corresponding to cell proliferation, was plotted after removing background values from each data point.
# (§5) Cancer or endothelial cells in 96-well plates were incubated with various doses of free LY or NP-LY for 24, 48 and 72 hrs. The percentage of viable cells were then quantified with 3-(4,5-Dimethylthiazol-2-yl)-5-(3-carboxymethoxyphenyl)-2-(4-sulfophenyl)-2H-tetrazolium (MTS) from the CellTiter 96 AQueous One Solution kit. MTS is reduced by mitochondrial dehydrogenases of live cells, yielding a colored adduct that can be read spectrophotometrically. […] Final absorbance, corresponding to cell proliferation, was plotted after removing background values from each data point.
# PI3K = conditions: literature [17]; cited from earlier work
# LLC = assay: MTS cell viability assay, LLC; assay type: cell-based; conditions: Mus musculus, Lewis lung carcinoma, 48 hrs, read-out: proportion of viable cells as percentage of vehicle-treated control
# Protocol: as §4, §5
# HUVEC [7] = assay: HUVEC tube assay on matrigel; assay type: cell-based, human; conditions: for inhibition at 50 µM: Homo sapiens, HUVEC, 48 hrs
# Protocol: The effect of the drugs using an in vitro angiogenic assay were quantified as follows. HUVEC were seeded in 24-well plates, on glass coverslips that had been coated with matrigel, in medium containing 50 μM of LY or NP-LY for 24 and 48 hrs. At each time points, cells were fixed with 4% paraformaldehyde and immediately visualized under inverted light microscopy at 20× magnification (Nikon Eclipse). Since the matrigel tube assay often yields high variability, we took 10 fields of view per coverslip with 5 coverslips per conditions, and furthermore, used three morphometric methods using the NIS-elements software (Nikon, Melville, N.Y., courtesy of Dr Jeffrey M. Karp) to quantify the results. In the first such method, we measured the length of each tube per field, in the second we measured the associated number of nodes, whereas in the third method, we used a standard graticule to measure the number of vessels falling on each intersection.
# AKT [8] = assay: Immunoblotting of VEGF-induced AKT phosphorylation, HUVEC; assay type: cell-based, human; conditions: 50 μM, 24 hours
# MDA-MB-231 [9] = assay: MTS cell viability assay, MDA-MB-231; assay type: cell-based; conditions: Homo sapiens, 48 hrs, read-out: proportion of viable cells as percentage of vehicle-treated control
# Protocol: as §4, §5
# HUVEC [10] = assay: MTS assay of FGF-induced HUVEC proliferation; assay type: cell-based, human; conditions: increasing concentrations, 24 and 48 hours
# Excerpt: Human umbilical vein endothelial cells (HUVEC) were obtained from Cambrex Bio Science (Hopkinton, Mass.) and cultured in EGM-2 medium according to the manufacturer's protocol. A single donor was obtained at passage one, and cells were used between passages 2 and 5. After reaching the first confluence in 100 mm dishes (within 6 to 7 days), the cells were subcultured following trypsin (0.025%) and EDTA (0.01%) application, and plated at various densities depending on the experiment. For all experiments, HUVEC were synchronized overnight using serum reduced medium (0.1% FBS) prior to drug addition, except in the case of the tube assay. […]
# as §4, with “Cancer or endothelial” for “Cancer”, “doses of free LY” for “doses PD”, “or NP-LY” for “or NP”, “cells were” for “cells was”, “Calif.). […]” for “Calif.). Final absorbance, corresponding to cell proliferation, was plotted after removing background values from each data point.”
# AKT [11] = assay: Immunoblotting of phosphorylated vs total AKT, MDA-MB-231; assay type: cell-based, human; conditions: 50 μM, 24 hrs
# Protocol: as §2, with “Cancer or endothelial cells were washed” for “Cells were washed”, “forms of AKT. Proteins” for “forms of ERK1//2 and AKT. Proteins”
# To further evaluate the underlying mechanisms of action of nanoparticles in cancer cells, MDA-MB-231 and B16-F10 were treated with 50 μM of LY294002 or NP-LY and subjected to immunoblotting against the phospho- and total forms of AKT (FIG. 8A). […]
smiles,measurement,setting,value
COc1cccc(-c2cc(=O)c3ccccc3o2)c1N [PD98059],induction of apoptosis,MDA-MB-231 [1]; 48 hours,failed to induce significant apoptosis
same,increase in late apoptosis,B16-F10 [2]; 48 hours,61 fold
same,number of cells in the necrotic stage relative to PD98059-nanoparticle-treated cells,B16-F10 [2]; 48 hours,51 fold
same,intratumoral ERK phosphorylation (immunostaining),B16/F10 melanoma; data not shown,detected
same,tumor apoptosis (TUNEL-staining),B16/F10 melanoma; data not shown,minimal effect
same,tumor growth (tumor volume),"B16/F10 melanoma; three doses, PD98059 5 mg/kg i.v., cisplatin 1.25 mg/kg i.p. one day later, to day 14",only partially inhibited
same,inhibitory effects against a panel of 18 other serine/threonine kinases,[3],no inhibitory effects
same,effect on phospho-ERK signal,ERK1/2 [4],almost completely abolished
same,inhibition of ERK signaling (phospho-ERK1/2 vs total),ERK1/2 [5],5 fold
N.N.[Cl][Pt][Cl] [cisplatin],intratumoral ERK phosphorylation (immunostaining),B16/F10 melanoma; data not shown,detected
same,necrotic areas in hematoxylin-eosin tumor sections,B16/F10 melanoma; data not shown,large necrotic areas
same,tumor apoptosis (TUNEL-staining),B16/F10 melanoma; data not shown,significant levels of apoptosis
"O=c1cc(N2CCOCC2)oc2c(-c3ccccc3)cccc12 [LY294002, 2-(4-morpholinyl)-8-phenylchromone]",cells in early apoptosis,MDA-MB-231 [1]; 48 hrs,3.11%
same,cells in late apoptosis,MDA-MB-231 [1]; 48 hrs,0.09%
same,cells in early apoptosis,B16-F10 [2]; 48 hrs,61.64%
same,cells in late apoptosis,B16-F10 [2]; 48 hrs,0.22%
same,viability at 50 µM,B16-F10 [6],8%
same,viability at 50 µM,LLC,2%
same,tube formation,"HUVEC [7]; 50 μM, 24 hrs",significantly inhibited
same,inhibition at 50 µM,HUVEC [7]; read-out: inhibition of branch length,98%
same,inhibition at 50 µM,HUVEC [7]; read-out: inhibition of the number of intersections,87%
same,inhibition at 50 µM,HUVEC [7]; read-out: inhibition of the number of nodes,99%
same,inhibition of VEGF-induced phosphorylation of AKT,AKT [8],complete inhibition
same,viability at 50 µM,MDA-MB-231 [9],116%
same,inhibition of phosphorylation of AKT,AKT [11],only minimal effect
